According to US11639350B2, “Heteroaryldihydropyrimidine derivatives and methods of treating hepatitis B infections” (Janssen Pharmaceutica NV, priority 2018, dated 2023):
Like-named read-outs stand apart in the source and are kept apart here.

Experiments:
HBV = HBV inhibitory activity: HBV DNA in the culture medium of HepG2.2.15 cells by q-PCR; type: cell-based; details: HepG2.2.15 cells, 6 days of compound treatment, HBV DNA in culture medium by q-PCR, highest concentration 10 μM, read-out: EC50
Procedure, shortened: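 Supernatant HBV DNA quantified by q-PCR after a 6-day compound exposure, with one mid-course medium change, of HepG2.2.15 cells (stably integrated HBV; 40,000 per well, 2% FBS). Eight-point 3-fold series topped at 10 μM for antiviral EC50; separate plates of 5,000 cells per well with 100 μM top give CC50.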

[1] = Cytotoxicity determination in HepG2.2.15 cells (CCK-8); type: cell-based; details: human, 6 days of compound treatment, CCK-8, highest concentration 100 μM
Procedure, shortened: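 CC50 is from CCK-8 absorbance (450 nm, 630 nm reference) after 2.5 h with reagent. Before that, compounds were applied for six days, top concentration 100 μM, eight threefold dilutions, one mid-course medium change, to stably HBV-integrated HepG2.2.15 cells plated at 5,000/well in 2% FBS.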

[2] = Hepatitis B virus, HepG2.2.15, 144 h

| SMILES | EC50 (HBV; [2]) [nM] | CC50 at 6 days [1] [µM] | EC50 (HBV) [nM] |
| --- | --- | --- | --- |
| COC(=O)C1=C(C2CCC(N(C)C(C)=O)C2)NC(c2nccs2)=NC1c1cccc(F)c1Cl (centres unmarked) [Compound 170, Methyl 4-(2-chloro-3-fluorophenyl)-6-(3-(N-methylacetamido)cyclopentyl)-2-(thiazol-2-yl)-1,4-dihydropyrimidine-5-carboxylate] | 533 | 14.9 | – |
| COC(=O)C1=C(C2CCCC(NS(C)(=O)=O)CC2)NC(c2nccs2)=NC1c1ccc(F)cc1Cl (centres unmarked) [Compound 190, Methyl 4-(2-chloro-4-fluorophenyl)-6-(4-(methylsulfonamido)-cycloheptyl)-2-(thiazol-2-yl)-1,4-dihydropyrimidine-5-carboxylate] | 78 | 15 | – |
| CCOC(=O)C1=C(C2CCN(S(=O)(=O)[C@H]3C[C@H](C(=O)O)C3)CC2)NC(c2c(F)cc(F)cc2F)=NC1c1ccc(F)c(F)c1Cl (stereo partly drawn) [Compound 195A, (trans)-3-((4-(6-(2-Chloro-3,4-difluorophenyl)-5-(ethoxycarbonyl)-2-(2,4,6-trifluorophenyl)-3,6-dihydropyrimidin-4-yl)piperidin-1-yl)sulfonyl)cyclobutanecarboxylic Acid] | 84 | 43.9 | – |
| CCOC(=O)C1=C(C2CCN(S(=O)(=O)[C@H]3C[C@H](C(=O)O)C3)CC2)NC(c2nccs2)=NC1c1ccc(F)c(F)c1Br (stereo partly drawn) [Compound 199A, (trans)-3-((4-(6-(2-bromo-3,4-difluorophenyl)-5-(ethoxycarbonyl)-2-(thiazol-2-yl)-3,6-dihydropyrimidin-4-yl)piperidin-1-yl)sulfonyl)cyclobutanecarboxylic Acid] | 56 | 35.8 | – |
| COC(=O)C1=C(C2CCN(S(=O)(=O)c3nccs3)CC2)NC(c2nccs2)=NC1c1ccc(F)cc1Cl (centres unmarked) [Compound 200A, Methyl 4-(2-chloro-4-fluorophenyl)-2-(thiazol-2-yl)-6-(1-(thiazol-2-ylsulfonyl)piperidin-4-yl)-1,4-dihydropyrimidine-5-carboxylate] | 102 | > 100 | – |
| COC(=O)C1=C(C2CCN(S(=O)(=O)c3cn(C)cn3)CC2)NC(c2nccs2)=NC1c1ccc(F)cc1Cl (centres unmarked) [Compound 201A, Methyl 4-(2-chloro-4-fluorophenyl)-6-(1-((1-methyl-1H-imidazol-4-yl)sulfonyl)piperidin-4-yl)-2-(thiazol-2-yl)-1,4-dihydropyrimidine-5-carboxylate] | 53 | 15.7 | – |
| COC(=O)C1=C(C23CC(NS(C)(=O)=O)(C2)C3)NC(c2nccs2)=NC1c1ccc(F)c(F)c1Cl (centres unmarked) [Compound 204A, Methyl 4-(2-chloro-3,4-difluorophenyl)-6-(3-(methyl-sulfonamido)bicyclo[0.1.1.1]pentan-1-yl)-2-(thiazol-2-yl)-1,4-dihydropyrimidine-5-carboxylate] | 7 | 23.8 | – |
| COC(=O)C1=C(C2CCN(S(C)(=N)=O)CC2)NC(c2nccs2)=NC1c1ccc(F)c(F)c1Cl (centres unmarked) [Compound 205A, methyl 4-(2-chloro-3,4-difluorophenyl)-6-(1-(S-methylsulfonimidoyl)piperidin-4-yl)-2-(thiazol-2-yl)-1,4-dihydropyrimidine-5-carboxylate] | – | 42.3 | 7 |
| COC(=O)C1=C(C23CC(NS(=O)(=O)c4cccc(C(=O)O)c4)(C2)C3)NC(c2nccs2)=NC1c1ccc(F)cc1Cl (centres unmarked) [Compound 208B, 3-(N-(3-(6-(2-Chloro-4-fluorophenyl)-5-(methoxycarbonyl)-2-(thiazol-2-yl)-3,6-dihydropyrimidin-4-yl)bicyclo[1.1.1]pentan-1-yl)sulfamoyl)benzoic acid] | 280 | > 100 | – |
| COC(=O)C1=C([C@@H]2CO[C@@H](C(=O)O)C2)NC(c2nccs2)=N[C@H]1c1cccc(F)c1Cl [Compound 212A] | 1010 | > 100 | – |
| COCCS(=O)(=O)N1CCC(C2=C(C(=O)OC)C(c3ccc(F)cc3Cl)N=C(c3nccs3)N2)CC1 (centres unmarked) [Compound 215, Methyl 4-(2-chloro-4-fluorophenyl)-6-(1-((2-methoxyethyl)sulfonyl)piperidin-4-yl)-2-(thiazol-2-yl)-1,4-dihydropyrimidine-5-carboxylate] | 51 | 52.7 | – |
| COC(=O)C1=C(C2CCN(S(=O)(=O)CC(F)(F)F)CC2)NC(c2nccs2)=NC1c1ccc(F)cc1Cl (centres unmarked) [Compound 216, Methyl 4-(2-chloro-4-fluorophenyl)-2-(thiazol-2-yl)-6-(1-((2,2,2-trifluoroethyl)sulfonyl)piperidin-4-yl)-1,4-dihydropyrimidine-5-carboxylate] | 90 | > 100 | – |
| COC(=O)C1=C(C2CCCC3(C2)OCCO3)NC(c2nccs2)=NC1c1ccc(F)cc1Cl (centres unmarked) [Compound 218, Methyl 4-(2-chloro-4-fluorophenyl)-6-(1,4-dioxaspiro[4.5]decan-7-yl)-2-(thiazol-2-yl)-1,4-dihydropyrimidine-5-carboxylate] | 148 | 29.7 | – |
| COC(=O)C1=C(C2CCN(S(=O)(=O)CC(C)(C)C(=O)O)CC2)NC(c2nccs2)=NC1c1ccc(F)cc1Cl (centres unmarked) [Compound 223, 3-((4-(6-(2-Chloro-4-fluorophenyl)-5-(methoxycarbonyl)-2-(thiazol-2-yl)-3,6-dihydropyrimidin-4-yl)piperidin-1-yl)sulfonyl)-2,2-dimethylpropanoic Acid] | 145 | 50 | – |
| COC(=O)C1=C([C@H]2CC[C@H](C(=O)O)CC2)NC(c2nccs2)=NC1c1ccc(F)cc1Br (stereo partly drawn) [Compound 225, (trans)-4-(6-(2-Bromo-4-fluorophenyl)-5-(methoxycarbonyl)-2-(thiazol-2-yl)-3,6-dihydropyrimidin-4-yl)cyclohexanecarboxylic Acid] | 87 | ≥ 100 | – |
| COC(=O)C1=C([C@H]2CC[C@H](C(=O)O)CC2)NC(c2nccs2)=NC1c1ccc(F)c(F)c1C (stereo partly drawn) [Compound 227A, (trans)-4-(−6-(3,4-Difluoro-2-methylphenyl)-5-(methoxycarbonyl)-2-(thiazol-2-yl)-3,6-dihydropyrimidin-4-yl)cyclohexanecarboxylic Acid] | 96 | 37.6 | – |
| COC(=O)C1=C([C@H]2CC[C@H](C(=O)O)CC2)NC(c2nccs2)=NC1c1ccc(F)c(F)c1Br (stereo partly drawn) [Compound 229B, (trans)-4-(6-(2-Bromo-3,4-difluorophenyl)-5-(methoxycarbonyl)-2-(thiazol-2-yl)-3,6-dihydropyrimidin-4-yl)cyclohexane-carboxylic Acid] | 11 | 32.1 | – |
| COC(=O)C1=C(C2CCN(S(=O)(=O)CCC(=O)O)CC2)NC(c2nccs2)=NC1c1ccc(F)c(F)c1Cl (centres unmarked) [Compound 230, 3-((4-(6-(2-Chloro-3,4-difluorophenyl)-5-(methoxycarbonyl)-2-(thiazol-2-yl)-3,6-dihydropyrimidin-4-yl)piperidin-1-yl)sulfonyl)propanoic Acid] | 146 | > 100 | – |
| COC(=O)C1=C(C2CCN(S(=O)(=O)[C@H]3C[C@H](C(=O)O)C3)CC2)NC(c2nccs2)=NC1c1ccc(F)cc1Br (stereo partly drawn) [Compound 241B, (trans)-3-((4-(−6-(2-Bromo-4-fluorophenyl)-5-(methoxycarbonyl)-2-(thiazol-2-yl)-3,6-dihydropyrimidin-4-yl)piperidin-1-yl)sulfonyl)cyclobutanecarboxylic Acid] | 120 | 60 | – |
| COC(=O)C1=C(C2CCN(S(=O)(=O)C3CN(CCOC(C)(C)C)C3)CC2)NC(c2nccs2)=NC1c1ccc(F)c(F)c1Cl (centres unmarked) [Compound 248, Methyl 6-(1-((1-(2-(tert-butoxy)ethyl)azetidin-3-yl)sulfonyl)piperidin-4-yl)-4-(2-chloro-3,4-difluorophenyl)-2-(thiazol-2-yl)-1,4-dihydropyrimidine-5-carboxylate] | 56 | 3.5 | – |
| COC(=O)C1=C(C2CCN(S(=O)(=O)c3cnn(C4CC4)c3)CC2)NC(c2nccs2)=NC1c1ccc(F)cc1Cl (centres unmarked) [Compound 254] | 47 | > 100 | – |
| COC(=O)C1=C(C2CCN(S(=O)(=O)C3COC3)C2)NC(c2nccs2)=NC1c1ccc(F)cc1Cl (centres unmarked) [Compound 255, Methyl 4-(2-chloro-4-fluorophenyl)-6-(−1-(oxetan-3-ylsulfonyl)pyrrolidin-3-yl)-2-(thiazol-2-yl)-1,4-dihydropyrimidine-5-carboxylate] | 49 | 24.1 | – |
| COC(=O)C1=C(C23CC(C(=O)O)(C2)C3)NC(c2nccs2)=NC1c1ccc(F)cc1Cl (centres unmarked) [Compound 258B, 3-(6-(2-Chloro-4-fluorophenyl)-5-(methoxycarbonyl)-2-(thiazol-2-yl)-3,6-dihydropyrimidin-4-yl)bicyclo[1.1.1]pentane-1-carboxylic Acid] | 401 | 27.4 | – |
| CNC(=O)C1COC(C2=C(C(=O)OC)C(c3cccc(F)c3Cl)N=C(c3nccs3)N2)C1 (centres unmarked) [Compound 263, Methyl 4-(2-chloro-3-fluorophenyl)-6-(4-(methylcarbamoyl)-tetrahydrofuran-2-yl)-2-(thiazol-2-yl)-1,4-dihydropyrimidine-5-carboxylate] | 150 | 81.1 | – |
| COC(=O)C1=C(C2CNC(=O)C2)NC(c2nccs2)=NC1c1cccc(F)c1Cl (centres unmarked) [Compound 284, methyl 4-(2-chloro-3-fluorophenyl)-6-(−5-oxopyrrolidin-3-yl)-2-(thiazol-2-yl)-1,4-dihydropyrimidine-5-carboxylate] | 226 | 21.1 | – |
